Like-named read-outs stand apart in the source and are kept apart here.
Assays:
hepatocytes [1] = details: mouse, in vivo; cited from earlier work
hepatocytes [2] = details: rat, in vivo, 1100 mg/kg; cited from earlier work
rats = details: intravenous injection; cited from earlier work
A375 cells [3] = assay: A375 xenograft in nude mice; format: in vivo, BALB/c-nude mice
Description: The 8-week-old female BALB/c-nude mice (18–20 g, specific pathogen-free, SPF) were obtained from the Laboratory Animal Experimental Center of the Academy of Military Medical Sciences (SCXK2012-0004, Beijing, China), and were injected with A375 cells and siENO1-A375 cells (1 × 10^7), respectively. One weeks after the tumor formation, four groups were set up: the “negative control (NC)” group (A375 cells, injected with PBS/day); “siENO1” group (siENO1-A375 cells, injected with PBS/day); “Dacarbazine” group (A375 cells, injected with 10 mg/kg/day dacarbazine); and the “CAD-14” group (A375 cells, injected with 5 mg/kg/day CAD-14). The tumor volume was measured every three days and calculated as length × width^2/2. After two weeks, the mice were sacrificed.
Tumor tissues were isolated from the mice after sacrifice. Then, the tissues were fixed in 4% paraformaldehyde and embedded in paraffin. For immunohistochemistry staining, tissues were stained with Ki67 (GB111141, Servicebio, Wuhan, China). For immunofluorescent staining, tissues were stained with ENO1 (bs-3978R, Bioss, Beijing, China).
Figure 5 CAD-14 inhibited the growth of A375 cells in vivo. (A–C) The A375 cells were transfected with three different recombinant ENO1 retroviral vectors and an NC virus for 72 h; the effect of recombinant retrovirus on ENO1 expression were evaluated via fluorescence photography and Western blotting. Histograms show the intensity ratio. (n = 3). Values represent the means ± SD. ** p < 0.01 versus “NC” group. (D–F) Cells were injected subcutaneously into nude mice. Then, they were treated with Dacarbazine (10 mg/kg/day, as a positive control) or CAD-14 (5 mg/kg/day) for two weeks (the red arrow at day 7 represents the first day of treatment). The tumor volume was calculated (n = 5). (G,H) Immunofluorescent staining of Ki67 and ENO1 to detect proliferation ability and expression of ENO1 in tumor tissues, respectively. Values represent the means ± SD. * p < 0.05 versus “PBS” group.

[4] = system: melanoma cell lines (A375, A875, SK-MEL-1); assay: Initial screening of analogues against melanoma cell lines; format: cell-based; details: for activity in initial screening: A375, A875, SK-MEL-1, 0–50 µM, 72 h, Figure 2A–C
Description: (§1) The HepG-2, HUVEC, L-02, HK-2, A375, A549, H8, U251, HeLa, Cal-27, and PANC-1 cells were maintained in a DMEM medium. The TSSCA, SK-MEL-1, and […] cells were cultured in an RPMI-1640 medium, and the A875 cells were cultured in a MEM medium. All cells were supplemented with 10% fetal bovine serum, 100 units/mL penicillin, and streptomycin at 37 °C in 5% CO2. The Cell Counting Kit-8 (CCK-8, bs-0764P, Bioss, Beijing, China) method was used to assay the cytotoxicity.
(§2) Figure 2 Effect of CA analogues in melanoma cells. (A–D) The different melanoma cell lines were treated with 0–50 µM analogues for 72 h, and then IC50 value was assayed (A dashed blue line: 50% inhibition rate; red box: analogues with high activity).

A375 cells [5] = assay: Colony formation assay; format: cell-based; details: A375, 0–0.02 µM, 14 days, versus Ctrl
Description: The A375 cells were plated onto six-well plates (500 cells/well), and after 24 h, CAD-14 (0–0.02 µM) was added to the medium and incubated for an additional 14 days. Cells were fixed in methanol and stained with Giemsa. The colonies were then scored and photographed.
(§3) Figure 3 CAD-14 inhibited the proliferation of A375 cells. (A) The different tumor and normal cell lines were treated with 0–200 µM CAD-14 for 72 h, and then IC50 value was assayed. (B) Cells were treated with 0–0.02 µM CAD-14 for 14 days, and Giemsa staining was used to conduct colony formation assays; the histogram depicts the number of colonies. (C,D) Cells were treated with 0–0.8 µM CAD-14 for 24 h; then, the related proteins were tested via Western blotting. Histograms depict the intensity ratio. (E,F) Cells were treated with 0–0.4 µM CAD-14 for 24 h, then the DNA content of the cells was determined with a flow cytometry system. Histograms show the percentage of cells in G0/G1, G2/M, and S phase. Values represent the means ± SD. * p < 0.05, ** p < 0.01 versus “Ctrl” group.

SK-MEL-1 cells = assay: CCK-8 cell viability, SK-MEL-1 melanoma cells; format: cell-based; details: Homo sapiens, 0–50 µM, 72 h
Description: as §1, §2

ENO1 = target: T1, ENO1 (Homo sapiens, UniProt P06733); assay: Western blot and cellular thermal shift assay (CETSA) of ENO1; format: binding
T1 construct: endogenous in cells; host or cells: A375 cells (whole-cell extracts or cell lysates)
Description: (§4) The A375 cells were treated with CAD-14 (0–0.8 µM), alone or with indicated agents, for 24 h. Whole-cell extracts were loaded for SDS-PAGE gels depending on the target protein sizes, and were explored with protein-specific antibodies followed by HRP-conjugated secondary antibodies. Bands corresponding to the antibodies were detected via ECL chemiluminescence.
In A375 cell lysates, CAD-14 (0.4 μM) was added for 24 h at different temperatures. Western blotting was used to quantify the effects on ENO1 protein levels.
(§5) Figure 4 Validation of the CAD-14 anti-melanoma pathway. (A) Cells were treated with 0–0.8 µM CAD-14 for 24 h, and the ENO1 was assayed via Western blotting. […] (C) Molecular docking analysis of ENO1 and CAD-14. (D) Cells were treated with 0–0.8 µM CAD-14 for 24 h, and the p-38/P-p38 were assayed via Western blot. Histograms show the intensity ratio. Values represent the means ± SD. * p < 0.05, ** p < 0.01 versus “Ctrl” group.

[6] = system: Bak, Bcl-2 and survivin in A375 cells; assay: Western blotting of apoptosis-related proteins; format: cell-based; details: A375, 0–0.8 µM, 24 h, dose-dependent
Description: as §4, §3

A375 cells [7] = assay: Cell cycle analysis by flow cytometry; format: cell-based; details: A375, 0–0.4 µM, 24 h, concentration-dependent
Description: The A375 cells were incubated with CAD-14 (0–0.4 µM) for 24 h. The cells were collected, washed in PBS, and fixed in ice-cold 75% (v/v) ethanol overnight at –20 °C. The cells were re-suspended, and the DNA content was tested using flow cytometry.
as §3

[8] = system: p38 pathway in A375 cells; assay: Western blot of p38/P-p38; format: cell-based; details: A375, 0–0.8 µM, 24 h
Description: as §4, §5

A375 cells [9] = assay: CCK-8 cell viability, A375 melanoma cells; format: cell-based; details: Homo sapiens, A-375, 0–50 µM, 72 h
Description: as §1, §2

[10] = Developmental/acute toxicity test of zebrafish embryos; format: in vivo; details: AB wild-type, in vivo; zebrafish embryos, 96 h exposure; read-out: median death concentration (IC50)
Source text: (§6) The AB-wild-type adult zebrafish (three months old) were purchased from the Institute of Aquatic Biology, Chinese Academy of Sciences (Wuhan, China). During breeding, male and female fish were placed in separate spawning boxes at a 1:1 ratio. Then, early in the morning, they were mixed and laid eggs. During the exposure period, 96-well plates containing normal embryos were randomly selected and viewed daily under a light microscope to assess the developmental toxicity.
(§7) (A) The embryo morphology after CAD-14 treatment for 0–96 h. (B) Survival statistics in different time and concentration.

zebrafish embryos = assay: as above; format: in vivo; details: 96 h
Source text: as §6, §7

A875 cells = assay: CCK-8 cell viability, A875 melanoma cells; format: cell-based; details: 0–50 µM, 72 h
Description: as §1, §2

[11] = system: multiple types of cancer cells and normal cells; assay: Specificity towards different tumor and normal cell lines; format: cell-based; details: 0–200 µM, 72 h; Figure 3A
Description: as §1, §3

T1 sequence (P06733 whole entry): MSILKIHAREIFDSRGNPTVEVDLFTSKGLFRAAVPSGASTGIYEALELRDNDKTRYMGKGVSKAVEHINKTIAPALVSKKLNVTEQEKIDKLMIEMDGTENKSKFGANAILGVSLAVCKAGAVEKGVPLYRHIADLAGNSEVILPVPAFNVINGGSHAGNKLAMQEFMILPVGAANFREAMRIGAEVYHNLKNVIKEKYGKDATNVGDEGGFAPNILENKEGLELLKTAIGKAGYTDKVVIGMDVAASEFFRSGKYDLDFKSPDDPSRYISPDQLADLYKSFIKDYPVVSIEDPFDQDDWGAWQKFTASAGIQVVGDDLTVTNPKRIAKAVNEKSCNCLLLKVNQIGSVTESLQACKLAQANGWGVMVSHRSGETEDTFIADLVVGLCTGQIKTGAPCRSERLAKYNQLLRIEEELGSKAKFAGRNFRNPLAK

O=C/C=C/c1ccccc1 [CA, Cinnamaldehyde]
micronucleus rate in hepatocytes (hepatocytes [1]): increased | micronucleus rate in hepatocytes (hepatocytes [2]): increased | lethal dose (LD50) (rats): 74.8 mg/kg | Ki67-positive cells in tumor tissues (A375 cells [3]; staining of tumor tissues, Figure 5G): obvious decrease in Ki67-positive cells

O=C/C=C/c1cccc2ccccc12 [CAD-2, (E)-3-(naphthalen-1-yl)acrylaldehyde]
activity in initial screening [4]: strong activity

O=C/C=C/c1ccccc1Br [CAD-7, (E)-3-(2-bromophenyl)acrylaldehyde]
activity in initial screening [4]: strong activity

O=C/C=C/c1cccc(Cl)c1 [CAD-10, (E)-3-(3-chlorophenyl)acrylaldehyde]
activity in initial screening [4]: strong activity

O=C/C=C/c1cccc(Cl)c1Cl [CAD-12, (E)-3-(2,3-dichlorophenyl)acrylaldehyde]
activity in initial screening [4]: strong activity

O=C/C=C/c1c(F)c(F)c(F)c(F)c1F [CAD-14, (E)-3-(perfluorophenyl)acrylaldehyde]
number of colonies (A375 cells [5]): significantly reduced the number of colonies | IC50 (SK-MEL-1 cells): 820 nM | thermal stability of ENO1 (temperature-dependent CETSA) (ENO1; 0.4 μM, A375 cell lysates): decreased the thermal stability of ENO1 | stability of ENO1 protein (ENO1; Western blot 0–0.8 µM 24 h and CETSA): changed the stability of ENO1 protein in a temperature- and dose-responsive manner | expression of anti-apoptotic protein Bcl-2 [6]: substantially diminished | expression of anti-apoptotic protein survivin [6]: substantially diminished | expression of pro-apoptotic protein Bak [6]: strongly increased | cell cycle arrest (A375 cells [7]): markedly induced S phase arrest | activity in initial screening [4]: strong activity | effect relative to CA ([4]; times stronger than CA): 80 times | effect relative to positive drug DTIC ([4]; times stronger than DTIC, Figure 2D): ~15 times | phosphorylation of p38 [8]: suppressed the phosphorylation of p38 | total p38 protein levels [8]: did not affect its total protein levels | IC50 (A375 cells [9]): 580 nM | LC50 (median lethal concentration) at 96 h [10]: 83700 nM | Malformation Rates (zebrafish embryos; 8 μM): 0.00% | Mortalities (zebrafish embryos; 8 μM): 0.00% | Number of Deaths (zebrafish embryos; 8 μM): 0 | Number of Deformities (zebrafish embryos; 8 μM): 0 | Survival Number (zebrafish embryos; 8 μM): 20 | Malformation Rates (zebrafish embryos; 16 μM): 0.00% | Mortalities (zebrafish embryos; 16 μM): 0.00% | Number of Deaths (zebrafish embryos; 16 μM): 0 | Number of Deformities (zebrafish embryos; 16 μM): 0 | Survival Number (zebrafish embryos; 16 μM): 20 | Malformation Rates (zebrafish embryos; 32 μM): 0.00% | Mortalities (zebrafish embryos; 32 μM): 0.00% | Number of Deaths (zebrafish embryos; 32 μM): 0 | Number of Deformities (zebrafish embryos; 32 μM): 0 | Survival Number (zebrafish embryos; 32 μM): 20 | Malformation Rates (zebrafish embryos; 64 μM): 0.00% | Mortalities (zebrafish embryos; 64 μM): 0.00% | Number of Deaths (zebrafish embryos; 64 μM): 0 | Number of Deformities (zebrafish embryos; 64 μM): 0 | Survival Number (zebrafish embryos; 64 μM): 20 | Mortalities (zebrafish embryos; 128 μM): 90.00% | Number of Deaths (zebrafish embryos; 128 μM): 18 | Number of Deformities (zebrafish embryos; 128 μM): 0 | Survival Number (zebrafish embryos; 128 μM): 2 | IC50 (A875 cells): 650 nM | tumor growth (A375 cells [3]; 5 mg/kg/day, two weeks, compared with PBS group): can inhibit the tumor growth | tumor growth effect compared with dacarbazine (A375 cells [3]; CAD-14 5 mg/kg/day vs dacarbazine 10 mg/kg/day): the effect was better than dacarbazine | ENO1 expression in tumor tissues (A375 cells [3]; immunofluorescent staining, Figure 5H): fewer ENO1 accumulated | specificity towards cell types [11]: inhibited A375 cells more effectively than other cancer cells and was less sensitive to normal cell lines

O=C/C=C/c1cccnc1 [CAD-20, (E)-3-(pyridin-3-yl)acrylaldehyde]
activity in initial screening [4]: strong activity

(E)-3-(pyridin-3-yl)acrylaldehyde [CAD-19]
activity in initial screening [4]: strong activity
